Test results taken from patent US20190142835A1, “INHIBITION OF AUTOPHAGY USING PHOSPHOLIPASE A2 INHIBITORS” (OREGON HEALTH & SCIENCE UNIVERSITY, priority 2017, published 2019).

Experiments:
[1] = tested on: PI3K, mTORC1 and mTORC2 signaling; test: Western blotting of PI3K-AKT-mTOR signaling; assay type: cell-based, human; conditions: added to CYT387
Description: Cells were plated in 6 well dishes and treated the following day with the indicated agents. Treatments were for 24 hours, after which cells were washed with ice cold PBS and lysed with RIPA buffer (Sigma). Phosphatase inhibitor cocktail set II and protease inhibitor cocktail set III (EMD Millipore) were added at the time of lysis. Lysates were centrifuged at 15,000 g×10 min at 4 degrees C. Protein concentrations were calculated based on a BCA assay (Thermo Scientific) generated standard curve. Proteins were resolved using the NuPAGE Novex Mini Gel system on 4% to 12% Bis-Tris Gels (Invitrogen). For western blotting, equal amounts of cell lysates (15-20 μg of protein) were resolved with SDSPAGE, and transferred to membranes. The membrane was probed with primary antibodies, washed, and then incubated with corresponding fluorescent secondary antibodies and washed. The fluorescent signal was captured using LI-COR (Lincoln, Nebr.) Odyssey Imaging System, and fluorescent intensity was quantified using the Odyssey software where indicated. The following antibodies were used for Western blots: p-S6 (S240/244), S6, LC3B, p-Akt(S473), p-Akt(T308), Akt, cleaved caspase3 (Cell Signaling Technologies). p-Stat3 (Y705), Stat3 and β-actin (AC15) (Abcam). Ki67 (Dako) and cleaved caspase3 (Cell Signaling Technologies) were used for immunohistochemistry. […] BX795 and GDC0941 were purchased from Sigma.

ACHN cells [2] = test: Cell viability (CellTiter-Glo), ACHN; assay type: cell-based, human; conditions: ACHN, 3 days
Description: (§1) Cell viability assays were performed by plating 2000 cells/well in 96-well plates in triplicate and treating the following day with the indicated agent. The experiment was continued for 3 days and then cell viability was determined using CellTiter-Glo assay kit (Promega).
The assay was measured using a luminometer. […] Experimental results are the average of at least three independent experiments.

SN12C cells [3] = test: Cell viability (CellTiter-Glo), SN12C; assay type: cell-based, human; conditions: 3 days
Description: as §1, with “(Promega). The assay was measured using a luminometer. […] Experimental results are the average of at least three independent experiments.” for “(Promega).”

ACHN cells [4] = test: Apoptosis (Caspase 3/7-Glo), ACHN; assay type: cell-based, human; conditions: ACHN, 72 h
Description: (§2) Apoptosis was determined using Caspase 3/7-Glo assay kit (Promega) following the manufacturer's instructions. Briefly, 2000 cells per well were plated in 96 well plates and cultured for 72 h. […] Caspase 3/7 activity was measured using a luminometer. Luminescence values were normalized by cell numbers.

SN12C cells [5] = test: Apoptosis (Caspase 3/7-Glo), SN12C; assay type: cell-based, human; conditions: 72 h
Description: as §2

ACHN xenografts = test: ACHN xenograft study; assay type: in vivo
Description: (§3) 6-week old mice were utilized for human renal cell carcinoma xenografts. For both ACHN and SN12C cell lines 2×10^6 cells were diluted in 50 μl of PBS and 50 μl of Matrigel (BD Biosciences) and were injected subcutaneously into the right and left flank of each mouse. Tumors were monitored until they reached an average size of 50-80 mm3 (approximately 2 weeks), at which point treatments were begun. […] MK2206 (60 mg/kg/day) were administered by oral gavage 2-3 day/week. […] Tumors and mouse weights were measured twice weekly. At least 6-8 mice per treatment group were included. All mice were euthanized using CO2 inhalation followed by cervical dislocation per institutional guidelines at Oregon Health and Science University. Experiments were approved by the Institutional Animal Care and Use Committee at OHSU.
(§4) Immunostaining was performed following deparaffinization and rehydration of slides. Antigen retrieval was performed in a pressure cooker using citrate buffer (pH 6.0) for 4 min. Nonspecific binding was blocked using Vector mouse IgG blocking serum 30 min at room temperature. Samples were incubated at room temperature with rabbit monoclonal antibodies pS6 (CST #5364) cleaved caspase 3 (CST#9661), and Ki67 (Dako#M7240).
(§5) Slides were developed with Vector Immpress rabbit IgG (#MP7401) and Vector Immpress mouse IgG (#MP7400) for 30 min at room temperature. Chromogenic detection was performed using Vector Immpact DAB (#SK4105) for 3 min. Slides were counterstained with hematoxylin. A 3DHistech MIDI Scanner (Perkin Elmer) was used to capture whole slide digital images with a 20× objective. Images were converted to into MRXS files and computer graphic analysis was completed using inForm 1.4.0 Advanced Image Analysis Software (Perkin Elmer).
Mouse tumor size was analyzed by 2-way ANOVA with time and drug as factors, using GraphPad Prism. Mouse weight during treatment was analyzed by repeated measures 2-way ANOVA, with time and drug as factors. A P value less than 0.05 was considered statistically significant. Immunohistochemistry: P-values were calculated using one-way ANOVA, with Bonferroni's multiple comparison test. * denotes P<0.05, ** denotes P<0.01, and *** denotes P<0.001 throughout this disclosure. Metabolite fold-changes were computed and visualized in Python script, using the openpyxl package (for importing Excel files) and the matplotlib package (for visualizing fold changes).

SN12C xenografts = test: SN12C xenograft study; assay type: in vivo; conditions: SN12C; CYT387 50 mg/kg/day or MK2206 60 mg/kg/day oral gavage
Description: as §3, §4
as §5, with “Images were converted to into MRXS files and computer graphic analysis was completed using inForm 1.4.0 Advanced Image Analysis Software (Perkin Elmer).” left out
Mouse tumor size was analyzed by 2-way ANOVA with time and drug as factors, using GraphPad Prism. Mouse weight during treatment was analyzed by repeated measures 2-way ANOVA, with time and drug as factors. […] Immunohistochemistry: P-values were calculated using one-way ANOVA, with Bonferroni's multiple comparison test. * denotes P<0.05, ** denotes P<0.01, and *** denotes P<0.001 throughout this disclosure. […]

glycolysis = test: Glucose uptake and lactate excretion as readouts for glycolysis; assay type: cell-based, human
From the text: The PI3K-AKT-mTOR pathway regulates multiple steps in glucose uptake and metabolism.

ACHN cells [6] = test: Cellular respiration (XF96 Seahorse, ECAR and OCR); assay type: cell-based, human; conditions: XF-96 Extracellular Flux Analyzer
Description: Oxygen consumption and extracellular acidification rates were carried out in a XF96 Seahorse Analyzer (Seahorse Bioscience, Billerica, Mass., USA). Cells were plated in the wells of 96-well plates (8×10^3 cells/well; XF96 plates, Seahorse Bioscience, North Billerica, Mass.) and incubated at 37° C. overnight. The next day, cells were treated with indicated drugs for 24 hours and then the medium was changed to XF Assay Medium and loaded with glucose, oligomycin, and 2-DG, respectively, as manufacture's recommendation.

ACHN cells [7] = test: Redox homeostasis (p-AMPK, NADPH, GSSG/GSH, ROS); assay type: cell-based, human; conditions: 2 μM CYT387, 10 μM MK2206, 24 hr
Description: ROS levels were measured with Cellrox Deep Red (Molecular Probes). Cell were plated in a 96 well clear bottom with black sides cell culture plate. […] The complete media+drug was removed after 24 hours and replaced with 5 μM of Cellrox Deep Red in media. Cells were incubated for 30 min at 370 C then washed with PBS. Fluorescence signal was detected using a Bioteck Cytation 5 plate reader. Data was analyzed using Prism software.

ACHN cells [8] = test: Lipid droplet staining (Bodipy 493/503), ACHN; assay type: cell-based, human; conditions: 24 hrs; p<0.001 vs control
Description: (§6) Cells were grown on coverslips then treated with drug for 24 hours. Cells were fixed in 4% paraformaldehyde for 15 min, rinsed with PBS. Cells were washed with a 1% saponin solution for 15 min at room temperature then washed several times in PBS to remove detergent. Cells were then incubated in Bodipy (ThermoFisher #D3922) at a final concentration of 1 uM for 10 min. Bodipy was removed and slides were rinsed with PBS then air dried and mounted on slides using Dako mounting media with Dapi.

[9] = tested on: Atg5+/+ murine embryonic fibroblasts; test: Lipid droplet number in Atg5+/+ MEFs; assay type: cell-based, mouse; conditions: 24 hr
Description: as §6

[10] = tested on: Atg5−/− murine embryonic fibroblasts; test: Lipid droplet number in Atg5−/− MEFs; assay type: cell-based, mouse; conditions: ATG5 deficient, 24 hr
Description: as §6

NC1(c2ccc(-c3nc4ccn5c(=O)[nH]nc5c4cc3-c3ccccc3)cc2)CCC1 [MK2206]
effect on mTORC1 activity in cells treated with CYT387 [1]: additive inhibitory effect on mTORC1 activity | proliferation (cell viability) (ACHN cells [2]): some anti-proliferative effects | proliferation (cell viability) (SN12C cells [3]): some anti-proliferative effects | apoptosis (cleaved-caspase 3/7) (ACHN cells [4]): little or no effect on apoptosis | apoptosis (cleaved-caspase 3/7) (SN12C cells [5]): little or no effect on apoptosis | antitumor effect of single agent (ACHN xenografts; ACHN, CYT387 50 mg/kg/day or MK2206 60 mg/kg/day oral gavage): exhibited antitumor effect | number of adipophilin-positive LDs in tumors (ACHN xenografts; treatment day 40, ACHN xenograft tumors, CYT387<MK2206<CYT387+MK2206, p=0.0046): significantly and incrementally increased | antitumor effect of single agent (SN12C xenografts): exhibited antitumor effect | lactate/glucose ratio in extracellular media (glycolysis; Control: 1.51): 0.81 | glucose uptake (glycolysis; in vitro, 18FDG): significantly decreased glucose uptake | lactate production (glycolysis; in vitro, culture media): reduced lactate production | ECAR (ACHN cells [6]): significantly reduced the ECAR | GSSG/GSH ratios (ACHN cells [7]): maintains GSSG/GSH ratios | NADPH levels (ACHN cells [7]): increases NADPH levels | ROS (ACHN cells [7]): mitigates ROS | p-AMPK (ACHN cells [7]): activates p-AMPK | number of lipid droplets (ACHN cells [8]): increase in the number of lipid droplets | size of lipid droplets (ACHN cells [8]): increase in the size of lipid droplets | LD numbers [9]: significantly increase LD numbers | lipid droplets [10]: no increase in lipid droplets
